Assay results as given in article PMC11640419, “New Synthetic Analogs of Natural 5Z,9Z-Dienoic Acids—Hybrid Molecules Based on Oleanolic Acid: Synthesis and Study of Antitumor Activity” (Cancers, 2024).

What was measured:
[1] = Cytotoxicity assay (7-AAD, flow cytometry); type: cell-based, human; conditions: human, Jurkat cells; Jurkat, 24 h incubation
Method: The human cell lines Jurkat, K562, U937, and HEK293 were obtained from the European Collection of Authenticated Cell Cultures (ECACC) and subsequently cultured in accordance with established standard protocols and sterile techniques. […] Subsequently, the cells were seeded into 24-well plates at a density of 5 × 10^4 cells per well and incubated for 12 h (Jurkat, K562, U937) and 24 h (HEK293).
The viability of the cells was evaluated through the utilization of the 7-AAD (7-aminoactinomycin D) dye (eBioscience™, San Diego, CA, USA). Following a 24 h incubation period with the test substances, the cells were washed with phosphate-salt buffer (PBS) and centrifuged at 400× g for five minutes. […] Subsequently, all cell samples were subjected to analysis on a NovoCyte Penteon flow cytometer (Agilent, Santa Clara, CA, USA).

[2] = Cytotoxicity assay (7-AAD, flow cytometry); type: cell-based, human; conditions: human
Method: The human cell lines Jurkat, K562, U937, and HEK293 were obtained from the European Collection of Authenticated Cell Cultures (ECACC) and subsequently cultured in accordance with established standard protocols and sterile techniques. The cells were maintained in RPMI 1640 (for Jurkat, K562, and U937) or DMEM (for HEK293) medium, both of which were supplemented with […], 10% FBS (Sigma, Kanagawa, Japan), and 100 units/mL penicillin-streptomycin (Sigma). Subsequently, the cells were seeded into 24-well plates at a density of 5 × 10^4 cells per well and incubated for 12 h (Jurkat, K562, U937) and 24 h (HEK293).
The viability of the cells was evaluated through the utilization of the 7-AAD (7-aminoactinomycin D) dye (eBioscience™, San Diego, CA, USA). Following a 24 h incubation period with the test substances, the cells were washed with phosphate-salt buffer (PBS) and centrifuged at 400× g for five minutes. The precipitate was resuspended in 200 μL of flow cytometry buffer (PBS without calcium and magnesium, 2.5% FBS) and incubated with a 1 mM 7-AAD dye solution for 15 min in the dark at room temperature. Subsequently, all cell samples were subjected to analysis on a NovoCyte Penteon flow cytometer (Agilent, Santa Clara, CA, USA).

[3] = HEK293 cells, HEK293, 24 h incubation
[4] = K562 cells, K562, 24 h incubation
[5] = U937 cells, U937, 24 h incubation

CC1(C)CC[C@]2(C(=O)NC34CC5CC(CC(C5)C3)C4)CC[C@]3(C)C(=CCC4[C@@]5(C)CC[C@H](O)C(C)(C)C5CC[C@]43C)C2C1 (stereo partly drawn) [compound 8c]
CC50 at 24 h [1]: 115 ± 12.1 µM | CC50 at 24 h [2, 3]: 414 ± 39.5 µM | CC50 at 24 h [2, 4]: 94.7 ± 8.68 µM | CC50 at 24 h [2, 5]: 57.6 ± 6.49 µM

CC(=O)O[C@H]1CC[C@@]2(C)C(CC[C@]3(C)C2CC=C2C4CC(C)(C)CC[C@]4(C(=O)Nc4ccncc4)CC[C@]23C)C1(C)C (stereo partly drawn) [compound 7g]
CC50 at 24 h [1]: 143 ± 14.3 µM | CC50 at 24 h [2, 3]: 430 ± 41.9 µM | CC50 at 24 h [2, 4]: 125 ± 11.9 µM | CC50 at 24 h [2, 5]: 112 ± 12.3 µM

CC1(C)CC[C@]2(C(=O)NC34CC5CC(CC(C5)C3)C4)CC[C@]3(C)C(=CCC4[C@@]5(C)CC[C@H](OC(=O)CCC/C=C\CC/C=C\CCCC(=O)O)C(C)(C)C5CC[C@]43C)C2C1 (stereo partly drawn) [compound 9c]
CC50 at 24 h [1]: 54.4 ± 5.88 µM | CC50 at 24 h [2, 3]: 167 ± 15.5 µM | CC50 at 24 h [2, 4]: 49.2 ± 5.01 µM | CC50 at 24 h [2, 5]: 29.4 ± 3.18 µM

Cc1c(NC(=O)[C@]23CCC(C)(C)CC2C2=CCC4[C@@]5(C)CC[C@H](O)C(C)(C)C5CC[C@@]4(C)[C@]2(C)CC3)c(=O)n(-c2ccccc2)n1C (stereo partly drawn) [compound 8b]
CC50 at 24 h [1]: 98.7 ± 9.39 µM | CC50 at 24 h [2, 3]: 267 ± 22.7 µM | CC50 at 24 h [2, 4]: 94.8 ± 9.57 µM | CC50 at 24 h [2, 5]: 85.4 ± 8.64 µM

CC1(C)CC[C@]2(C(=O)Nc3nccs3)CC[C@]3(C)C(=CCC4[C@@]5(C)CC[C@H](OC(=O)CCC/C=C\CC/C=C\CCCC(=O)O)C(C)(C)C5CC[C@]43C)C2C1 (stereo partly drawn) [compound 9f]
CC50 at 24 h [1]: 96.7 ± 9.18 µM | CC50 at 24 h [2, 3]: 205 ± 19.7 µM | CC50 at 24 h [2, 4]: 84.4 ± 8.47 µM | CC50 at 24 h [2, 5]: 79.7 ± 6.78 µM

CC1(C)CC[C@]2(C(=O)NCc3cccs3)CC[C@]3(C)C(=CCC4[C@@]5(C)CC[C@H](OC(=O)CCC/C=C\CC/C=C\CCCC(=O)O)C(C)(C)C5CC[C@]43C)C2C1 (stereo partly drawn) [compound 9e]
CC50 at 24 h [1]: 76.3 ± 7.25 µM | CC50 at 24 h [2, 3]: 195 ± 17.9 µM | CC50 at 24 h [2, 4]: 69.8 ± 6.99 µM | CC50 at 24 h [2, 5]: 56.4 ± 5.11 µM

CC(=O)O[C@H]1CC[C@@]2(C)C(CC[C@]3(C)C2CC=C2C4CC(C)(C)CC[C@]4(C(=O)Nc4nccs4)CC[C@]23C)C1(C)C (stereo partly drawn) [compound 7f]
CC50 at 24 h [1]: 152 ± 14.1 µM | CC50 at 24 h [2, 3]: 494 ± 42.2 µM | CC50 at 24 h [2, 4]: 144 ± 12.8 µM | CC50 at 24 h [2, 5]: 132 ± 12.9 µM

Cc1cc(NC(=O)[C@]23CCC(C)(C)CC2C2=CCC4[C@@]5(C)CC[C@H](O)C(C)(C)C5CC[C@@]4(C)[C@]2(C)CC3)no1 (stereo partly drawn) [compound 8h]
CC50 at 24 h [1]: 179 ± 17.1 µM | CC50 at 24 h [2, 3]: 598 ± 59 µM | CC50 at 24 h [2, 4]: 161 ± 16.4 µM | CC50 at 24 h [2, 5]: 155 ± 15.2 µM

Cc1cc(NC(=O)[C@]23CCC(C)(C)CC2C2=CCC4[C@@]5(C)CC[C@H](OC(=O)CCC/C=C\CC/C=C\CCCC(=O)O)C(C)(C)C5CC[C@@]4(C)[C@]2(C)CC3)no1 (stereo partly drawn) [compound 9h]
CC50 at 24 h [1]: 91.2 ± 8.34 µM | CC50 at 24 h [2, 3]: 213 ± 18.3 µM | CC50 at 24 h [2, 4]: 81.5 ± 7.62 µM | CC50 at 24 h [2, 5]: 72.3 ± 6.85 µM

CC1(C)CC[C@]2(C(=O)Nc3ccncc3)CC[C@]3(C)C(=CCC4[C@@]5(C)CC[C@H](O)C(C)(C)C5CC[C@]43C)C2C1 (stereo partly drawn) [compound 8g]
CC50 at 24 h [1]: 160 ± 14.3 µM | CC50 at 24 h [2, 3]: 443 ± 40.3 µM | CC50 at 24 h [2, 4]: 137 ± 12.4 µM | CC50 at 24 h [2, 5]: 135 ± 12.8 µM

CC1(C)CC[C@]2(C(=O)Nc3cccc4cccnc34)CC[C@]3(C)C(=CCC4[C@@]5(C)CC[C@H](OC(=O)CCC/C=C\CC/C=C\CCCC(=O)O)C(C)(C)C5CC[C@]43C)C2C1 (stereo partly drawn) [compound 9i]
CC50 at 24 h [1]: 84.7 ± 8.21 µM | CC50 at 24 h [2, 3]: 262 ± 22.7 µM | CC50 at 24 h [2, 4]: 77.3 ± 6.85 µM | CC50 at 24 h [2, 5]: 62.9 ± 5.91 µM

CC1(C)CC[C@]2(C(=O)O)CC[C@]3(C)C(=CC[C@@H]4[C@@]5(C)CC[C@H](O)C(C)(C)[C@@H]5CC[C@]43C)[C@@H]2C1 [Oleanoic acid, Oleanolic acid]
CC50 at 24 h [1]: 199 ± 18.4 µM | CC50 at 24 h [2, 3]: 497 ± 39.8 µM | CC50 at 24 h [2, 4]: 171 ± 16.5 µM | CC50 at 24 h [2, 5]: 144 ± 14.3 µM
